# ChEMBL document CHEMBL1143031, “First synthesis of 7alpha- and 7beta-amino-DHEA, dehydroepiandrosterone (DHEA) analogues and preliminary evaluation of their cytotoxicity on Leydig cells and TM4 Sertoli cells” (2007)
# Tests used:
# Format in all cases: functional
# [1] = Effect on apoptosis in BALB/c mouse sertoli TM4 cells assessed as cell viability at 35 uM after 24 hrs by DAPI test; conditions: TM4, 24 h, read-out: Activity
# [2] = Effect on apoptosis in BALB/c mouse sertoli TM4 cells assessed as cell viability at 70 uM after 24 hrs by DAPI test; conditions: TM4, 24 h, read-out: Activity
# [3] = Effect on cell necrosis in Sprague-Dawley rat Leydig cells assessed as cell viability at 70 uM after 24 hrs by trypan blue test; conditions: read-out: Activity
# [4] = Effect on cell necrosis in Sprague-Dawley rat Leydig cells assessed as cell viability at 35 uM after 24 hrs by trypan blue test; conditions: read-out: Activity
# [5] = Effect on necrosis in BALB/c mouse sertoli TM4 cells assessed as cell viability at 70 uM after 24 hrs by Trypan blue test; conditions: TM4, 24 h, read-out: Activity
# [6] = Effect on apoptosis in Sprague-Dawley rat Leydig cells assessed as cell viability at 35 uM after 24 hrs by DAPI test; conditions: read-out: Activity
# [7] = Effect on apoptosis in Sprague-Dawley rat Leydig cells assessed as cell viability at 70 uM after 24 hrs by DAPI test; conditions: read-out: Activity
# [8] = Effect on necrosis in BALB/c mouse sertoli TM4 cells assessed as cell viability at 35 uM after 24 hrs by Trypan blue test; conditions: TM4, 24 h, read-out: Activity
SMILES,viability at 35 µM [1],viability at 70 µM [2],viability at 70 µM [3],viability at 35 µM [4],viability at 70 µM [5],viability at 35 µM [6],viability at 70 µM [7],viability at 35 µM [8]
C[C@]12CC[C@H](O)CC1=C[C@H](N)[C@@H]1[C@@H]2CC[C@]2(C)C(=O)CC[C@@H]12,82%,79%,85%,93%,0%,92%,89%,64%
C[C@]12CC[C@H](O)CC1=CC[C@@H]1[C@@H]2CC[C@]2(C)C(=O)CC[C@@H]12 [PRASTERONE],90%,90%,76%,86%,92%,95%,95%,92%
